Experimental data reported in ChEMBL document CHEMBL6153025, “Multidrug-resistant bacteria quorum-sensing inhibitors: A particular focus on Pseudomonasaeruginosa” (Eur J Med Chem, 2025).
Values after ≈ are worked out from the molar mass of the structure shown.

Legend:
[1] = Inhibition of quorum sensing system in Pseudomonas aeruginosa PAO1
Pseudomonas aeruginosa [2] = assay: Antibiofilm activity against Pseudomonas aeruginosa PAO1 assessed as inhibition of biofilm formation at 100 uM relative to control; assay type: functional; design: scale not given: the % may be the effect or the level left
Escherichia coli = assay: Antibacterial activity against Escherichia coli; assay type: functional
Bacillus pumilus = assay: Antibacterial activity against Bacillus pumilus; assay type: functional
Bacillus subtilis = assay: Antibacterial activity against Bacillus subtilis; assay type: functional
Pseudomonas aeruginosa [3] = assay: Antivirulence activity against Pseudomonas aeruginosa PAO1 assessed as reduction in pyocyanin level at 10 uM relative to control; assay type: functional; design: scale not given: the % may be the effect or the level left
Pseudomonas aeruginosa [4] = assay: Antibacterial activity against Pseudomonas aeruginosa; assay type: functional
Staphylococcus aureus [5] = assay: Antibacterial activity against Methicillin-sensitive Staphylococcus aureus; assay type: functional
Pseudomonas aeruginosa [6] = assay: Antibacterial activity against Pseudomonas aeruginosa PAO1 assessed as reduction in bacterial growth by broth microdilution method; assay type: functional, organism-based
Pseudomonas aeruginosa [7] = assay: Antivirulence activity in Pseudomonas aeruginosa PAO1 assessed as reduction in pyocyanin production at 10 uM incubated for 24 hrs by absorbance based analysis relative to control; assay type: functional; design: scale not given: the % may be the effect or the level left
Pseudomonas aeruginosa [8] = assay: Antibacterial activity against Pseudomonas aeruginosa ATCC 15442 assessed as reduction in bacterial cell growth incubated for 24 hrs by two fold serial microdilution method; assay type: functional
Pseudomonas aeruginosa [9] = assay: Antibacterial activity against Pseudomonas aeruginosa PAO1-L; assay type: functional, organism-based
Staphylococcus aureus [10] = assay: Antibacterial activity against Methicillin-resistant Staphylococcus aureus; assay type: functional
Pseudomonas aeruginosa [11] = assay: Antimicrobial activity against Pseudomonas aeruginosa assessed as reduction in microbial growth; assay type: functional, organism-based
Pseudomonas aeruginosa [12] = assay: Antibiofilm activity against Pseudomonas aeruginosa assessed as reduction in biofilm formation incubated for 24 hrs relative to control; assay type: functional; design: scale not given: the % may be the effect or the level left
Pseudomonas aeruginosa [13] = assay: Antibiofilm activity against Pseudomonas aeruginosa PA14 assessed as reduction in biofilm biomass production at 18 ug/ml relative to control; assay type: functional; design: scale not given: the % may be the effect or the level left; conditions: dose 18 µg/ml
Pseudomonas aeruginosa [14] = assay: Anti-virulence effect in Pseudomonas aeruginosa PAO1 assessed as inhibition of rhamnolipid production at 10 uM relative to control; assay type: functional; design: scale not given: the % may be the effect or the level left
Pseudomonas aeruginosa [15] = assay: Antibiofilm activity against Pseudomonas aeruginosa ATCC 27853 assessed as reduction in biofilm biomass at 16 ug/ml relative to control; assay type: functional; design: scale not given: the % may be the effect or the level left; conditions: dose 16 µg/ml
Pseudomonas aeruginosa [16] = assay: Antibiofilm activity against Pseudomonas aeruginosa PAO1 assessed as inhibition of biofilm formation incubated for 24 hrs by crystal violet staining based assay; assay type: functional, organism-based; conditions: PAO1, 24 h
Pseudomonas aeruginosa [17] = assay: Anti-virulence activity against Pseudomonas aeruginosa PAO1-L assessed as reduction in pyocyanin production at 10 uM incubated for 24 hrs by absorbance based analysis relative to control; assay type: functional; design: scale not given: the % may be the effect or the level left
[18] = Inhibition of quorum sensing system in Pseudomonas aeruginosa PAO1 expressing lasB-gfp
Pseudomonas aeruginosa [19] = assay: Antimicrobial activity against Pseudomonas aeruginosa PAO1 assessed as inhibition of bacterial growth measured for 18 hrs by CLSI-based broth microdilution method; assay type: functional

SMILES: O=C(CNc1ccc(C(=O)/C=C/c2ccc(Cl)cc2)cc1)N[C@@H]1CCOC1=O
- IC50 [1]: 46.8 µM

SMILES: O=C(CNc1ccc(C(=O)/C=C/c2ccc(F)cc2)cc1)N[C@@H]1CCOC1=O
- IC50 [1]: 46.8 µM

SMILES: O=c1cc(-c2ccc(O)c(O)c2)oc2cc(O)c([C@@H]3O[C@H](CO)[C@@H](O)[C@H](O)[C@H]3O)c(O)c12 [ISOORIENTIN]
- Activity (Pseudomonas aeruginosa [2]): 18%

SMILES: O=C(CNc1ccc(C(=O)/C=C/c2ccc(Cl)c(Cl)c2)cc1)N[C@@H]1CCOC1=O
- IC50 [1]: 46.8 µM

SMILES: O=C(CNc1ccc(C(=O)/C=C/c2cc(Cl)cc(Cl)c2)cc1)N[C@@H]1CCOC1=O
- IC50 [1]: 46.8 µM

SMILES: O=C(CNc1ccc(C(=O)/C=C/c2ccccc2Br)cc1)N[C@@H]1CCOC1=O
- IC50 [1]: 37.6 µM

SMILES: O=c1c(O[C@@H]2O[C@H](CO)[C@H](O)[C@H](O)[C@H]2O)c(-c2ccc(O)c(O)c2)oc2cc(O)cc(O)c12 [HYPEROSIDE]
- Activity (Pseudomonas aeruginosa [2]): 18%

SMILES: O=C(CCCCCOc1ccc(F)cc1)NN1C(=O)CN(c2ccccc2O)C1=O
- MIC (Escherichia coli): > 512 µg/mL
- MIC (Bacillus pumilus): > 512 µg/mL
- MIC (Bacillus subtilis): > 512 µg/mL
- Activity (Pseudomonas aeruginosa [3]): 61%
- MIC (Pseudomonas aeruginosa [4]): > 512 µg/mL
- MIC (Staphylococcus aureus [5]): > 512 µg/mL

SMILES: CC(C)c1ccc(/C=C/C(=O)c2ccc(NCC(=O)N[C@@H]3CCOC3=O)cc2)cc1
- MIC (Pseudomonas aeruginosa [6]): 5 µM (≈ 2.03 µg/mL)

SMILES: Clc1ccc2c(NCCCCCCCCNCc3cc4ccccc4o3)ccnc2c1
- Activity (Pseudomonas aeruginosa [7]): 97%
- MIC (Pseudomonas aeruginosa [8]): > 2 µM

SMILES: N#CCc1ccc(OCC(O)Cn2cnc3ccc(Cl)cc3c2=O)cc1F (stereo unspecified)
- IC50 (Pseudomonas aeruginosa [9]): 6.4 µM

SMILES: O=C(CNc1ccc(C(=O)/C=C/c2ccccc2Cl)cc1)N[C@@H]1CCOC1=O
- IC50 [1]: 67.8 µM

SMILES: CC(=O)NCCCCCCCCNc1ccnc2cc(Cl)ccc12
- Activity (Pseudomonas aeruginosa [7]): 42%
- MIC (Pseudomonas aeruginosa [8]): > 2 µM

SMILES: COc1cccc(/C=C/C(=O)c2ccc(NCC(=O)N[C@@H]3CCOC3=O)cc2)c1
- IC50 [1]: 56.5 µM

SMILES: O=C(CCCCCOc1ccc(C(F)(F)F)cc1)NNC(=O)Cn1c(=O)oc2ncccc21
- MIC (Staphylococcus aureus [10]): > 512 µg/mL
- MIC (Escherichia coli): > 512 µg/mL
- MIC (Bacillus pumilus): > 512 µg/mL
- MIC (Bacillus subtilis): > 512 µg/mL
- Activity (Pseudomonas aeruginosa [3]): 53.1%
- MIC (Pseudomonas aeruginosa [4]): > 512 µg/mL
- MIC (Staphylococcus aureus [5]): > 512 µg/mL

SMILES: Nc1ccc(S(=O)(=O)Nc2ccc3c(c2)OC2C=C(O)C=C(O)C2C3=O)cc1 (stereo unspecified)
- IC50 (Pseudomonas aeruginosa [11]): 100 µM
- Activity (Pseudomonas aeruginosa [12]): 50%

SMILES: O=C(CNc1ccc(C(=O)/C=C/c2ccccc2)cc1)N[C@@H]1CCOC1=O
- IC50 [1]: 62.5 µM

SMILES: COc1cc(/C=C/c2cn(Cc3ccccc3)nn2)c(C(=O)O)c(O)c1CC=C(C)C
- Activity (Pseudomonas aeruginosa [13]): 51.38%

SMILES: O=C(CCCCCOc1ccc(Cl)cc1)NNC(=O)Cn1c(=O)oc2ncccc21
- MIC (Staphylococcus aureus [10]): > 512 µg/mL
- MIC (Escherichia coli): > 512 µg/mL
- MIC (Bacillus pumilus): > 512 µg/mL
- MIC (Bacillus subtilis): > 512 µg/mL
- MIC (Pseudomonas aeruginosa [4]): > 512 µg/mL
- MIC (Staphylococcus aureus [5]): > 512 µg/mL

SMILES: Clc1ccc2c(NCCCCCCCCNCc3ncc[nH]3)ccnc2c1
- Activity (Pseudomonas aeruginosa [7]): 97%
- MIC (Pseudomonas aeruginosa [8]): > 2 µM

SMILES: CCCCCCCCCCC(=O)NN1C(=O)CN(c2ccccc2O)C1=O
- MIC (Escherichia coli): > 512 µg/mL
- MIC (Bacillus pumilus): > 512 µg/mL
- MIC (Bacillus subtilis): > 512 µg/mL
- Activity (Pseudomonas aeruginosa [14]): 2.76%
- Activity (Pseudomonas aeruginosa [3]): 38.62%
- MIC (Pseudomonas aeruginosa [4]): > 512 µg/mL
- MIC (Staphylococcus aureus [5]): > 512 µg/mL

SMILES: Clc1ccc2c(NCCCCCCCCNCc3csc4ccccc34)ccnc2c1
- Activity (Pseudomonas aeruginosa [7]): 97%
- MIC (Pseudomonas aeruginosa [8]): > 2 µM

SMILES: O=C(O)CCc1ccc(O)c(O)c1 [DIHYDROCAFFEIC ACID]
- Activity (Pseudomonas aeruginosa [15]): 19.82%

SMILES: CCCCCCCn1ccnc1
- IC50 (Pseudomonas aeruginosa [16]): 3.29 µM

SMILES: COc1cc(/C=C/C2C(C)=NC(C)=CN2C)c(C(=O)O)c(O)c1CC=C(C)C (stereo unspecified)
- Activity (Pseudomonas aeruginosa [13]): 59.68%

SMILES: N#CCc1ccc(OC[C@@H](O)Cn2cnc3ccc(Cl)cc3c2=O)cc1
- Activity (Pseudomonas aeruginosa [17]): 95%
- IC50 (Pseudomonas aeruginosa [9]): 4.3 µM
- IC50 [18]: 7 µM

SMILES: O=c1c(-c2ccc(O)cc2)coc2cc(O)ccc12 [DAIDZEIN]
- MIC (Pseudomonas aeruginosa [19]): 45 µg/mL (≈ 177 µM)

SMILES: O=c1cc(-c2ccc(O)cc2)oc2cc(O)cc(O)c12 [APIGENIN]
- MIC (Pseudomonas aeruginosa [19]): 0.48 µg/mL (≈ 1.78 µM)

SMILES: O=C1O/C(=C\Br)C=C1Br
- IC50 (Pseudomonas aeruginosa [6]): 17.4 µM

SMILES: O=[N+]([O-])c1ccc(CNCCCCCCCCNc2ccnc3cc(Cl)ccc23)cc1
- Activity (Pseudomonas aeruginosa [7]): 97%
- MIC (Pseudomonas aeruginosa [8]): > 2 µM

SMILES: O=C(COc1ccc(C(=O)/C=C/c2ccccc2Cl)cc1)N[C@H]1CCOC1=O
- MIC (Pseudomonas aeruginosa [6]): 5 µM (≈ 2 µg/mL)

SMILES: O=C(CNc1ccc(C(=O)/C=C/c2ccc(-c3ccccc3)cc2)cc1)N[C@@H]1CCOC1=O
- MIC (Pseudomonas aeruginosa [6]): 5 µM (≈ 2.2 µg/mL)

SMILES: COc1ccc(OCCCCCCC(=O)NNC(=O)Cn2c(=O)oc3ncccc32)cc1
- MIC (Staphylococcus aureus [10]): > 512 µg/mL
- MIC (Escherichia coli): > 512 µg/mL
- MIC (Bacillus pumilus): > 512 µg/mL
- MIC (Bacillus subtilis): > 512 µg/mL
- Activity (Pseudomonas aeruginosa [14]): 6.34%
- MIC (Pseudomonas aeruginosa [4]): > 512 µg/mL
- MIC (Staphylococcus aureus [5]): > 512 µg/mL

SMILES: COc1cc(/C=C/c2ccc(C#N)cc2F)c(C(=O)O)c(O)c1CC=C(C)C
- Activity (Pseudomonas aeruginosa [13]): 19.43%

SMILES: COc1cc(/C=C/c2cncs2)c(C(=O)O)c(O)c1CC=C(C)C
- Activity (Pseudomonas aeruginosa [13]): 21.06%
